The record followed here is patent US10577363B2, “Substituted piperidine compounds” (EPIZYME, INC., priority 2014, dated 2020).

Structures are written as SMILES.

The target in assay [1] is T1, SMYD3 (Homo sapiens (Human), UniProt Q9H7B4). The experiment in a line: SMYD3 biochemical assay (SPA, 3H-SAM methylation of MEKK2 protein substrate). The note with it: average of n = 1 to n = 50; read-out: SMYD3 Biochem IC50. In a few lines: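 Full-length native human SMYD3 (E. coli-expressed, tags removed) preincubated with compounds 30 min at room temperature, then reaction started with 3H-SAM and GST-tagged MEKK2 protein in 25 mM Tris-Cl pH 8.0, 1 mM TCEP, 0.005% BSG, 0.005% Tween 20. Quenched with unlabelled SAM (100 uM final); 3H-MEKK2 counted by SPA.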

Assay [2] concerns the target T1, SMYD3. As to the kind of experiment: SMYD3 cell assay (Trimethyl-MEKK2 In-Cell Western in 293T/17 cells). The assay is classed as cell-based. The note with it: average of n = 1 to n = 50; read-out: SMYD3 Cell IC50. An outline of the steps:
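In-Cell Western ratio of trimethyl-Lys260 MEKK2 to anti-flag signal; percent inhibition from DMSO and maximum-inhibition controls, IC50 by non-linear regression, triplicates.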

T1 sequence (Q9H7B4 whole entry): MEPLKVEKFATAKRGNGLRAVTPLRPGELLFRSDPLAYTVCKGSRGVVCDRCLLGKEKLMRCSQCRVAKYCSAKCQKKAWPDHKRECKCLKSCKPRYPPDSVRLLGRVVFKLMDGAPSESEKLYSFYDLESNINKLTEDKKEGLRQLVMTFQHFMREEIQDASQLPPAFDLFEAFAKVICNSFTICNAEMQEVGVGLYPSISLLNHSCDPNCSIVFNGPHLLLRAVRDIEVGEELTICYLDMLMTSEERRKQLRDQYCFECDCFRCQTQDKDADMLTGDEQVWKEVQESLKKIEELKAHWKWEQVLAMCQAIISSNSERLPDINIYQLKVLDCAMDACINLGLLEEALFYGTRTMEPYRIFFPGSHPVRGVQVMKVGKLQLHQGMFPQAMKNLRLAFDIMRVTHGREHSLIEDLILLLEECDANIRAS

Regarding `C[C@H]1C[C@@H](NC(=O)c2cc(C3CC3)on2)CCN1S(=O)(=O)N1CCNCC1Cc1ccccc1` (stereo partly drawn) [compound 737, N-((2S,4S)-1-((2-benzylpiperazin-1-yl)sulfonyl)-2-methylpiperidin-4-yl)-5-cyclopropylisoxazole-3-carboxamide], the IC50 at SMYD3 [1] worked out at 469 nM; on SMYD3 [2] it was 6940 nM.

`C[C@H]1CN(S(=O)(=O)CC2CCN(CCN3CCOCC3)CC2)CC[C@H]1NC(=O)c1cc(C2CC2)on1` [compound 738, 5-cyclopropyl-N-((3S,4R)-3-methyl-1-(((1-(2-morpholinoethyl)piperidin-4-yl)methyl)sulfonyl)piperidin-4-yl)isoxazole-3-carboxamide]: the IC50 stood at 476 nM on SMYD3 [1] and 2820 nM on SMYD3 [2].

In the case of `O=C(N[C@H]1C[C@H]2CC[C@@H](C1)N2S(=O)(=O)CCc1ccncc1)c1cc(C2CC2)on1` [compound 739, 5-cyclopropyl-N-((1R,3r,5S)-8-((2-(pyridin-4-yl)ethyl)sulfonyl)-8-azabicyclo[3.2.1]octan-3-yl)isoxazole-3-carboxamide], the IC50 is 491 nM on SMYD3 [1] and 2400 nM on SMYD3 [2].

As to `CN(CCN1CCOCC1)CCS(=O)(=O)N1[C@@H]2CC[C@H]1C[C@@H](NC(=O)c1cc(C3CC3)on1)C2` [compound 742, 5-cyclopropyl-N-((1R,3r,5S)-8-((2-(methyl(2-morpholinoethyl)amino)ethyl)sulfonyl)-8-azabicyclo[3.2.1]octan-3-yl)isoxazole-3-carboxamide], the results for the IC50 on SMYD3 [1] and on SMYD3 [2] were 513 nM and 899 nM, respectively.

Consider `O=C(N[C@H]1C[C@H]2CC[C@@H](C1)N2S(=O)(=O)CCNCCN1CCOCC1)c1cc(C2CC2)on1` [compound 743, 5-cyclopropyl-N-((1R,3r,5S)-8-((2-((2-morpholinoethyl)amino)ethyl)sulfonyl)-8-azabicyclo[3.2.1]octan-3-yl)isoxazole-3-carboxamide], for which the IC50 on SMYD3 [1] came to 514 nM; on SMYD3 [2] it was 1820 nM.

`O=C(N[C@@H]1CCN(S(=O)(=O)CC2CCNCC2)[C@H](Cc2ccccc2)C1)c1cc(C2CC2)on1` [compound 744, N-((2R,4R)-2-benzyl-1-((piperidin-4-ylmethyl)sulfonyl)piperidin-4-yl)-5-cyclopropylisoxazole-3-carboxamide]: the IC50 on SMYD3 [1] was 518 nM; at SMYD3 [2] it was 2350 nM.

As for `O=C(N[C@H]1CCN(S(=O)(=O)CC2CCCN2)[C@@H](Cc2ccccc2)C1)c1cc(C2CC2)on1` (stereo partly drawn) [compound 745, N-((2S,4S)-2-benzyl-1-((pyrrolidin-2-ylmethyl)sulfonyl)piperidin-4-yl)-5-cyclopropylisoxazole-3-carboxamide], the IC50 amounted to 533 nM on SMYD3 [1] and 2640 nM at SMYD3 [2].

`C[C@@H]1CN(S(=O)(=O)CCN2CCCC2)[C@H](C)C[C@@H]1NC(=O)c1cc(C2CC2)on1` [compound 746, 5-cyclopropyl-N-((2R,4S,5R)-2,5-dimethyl-1-((2-(pyrrolidin-1-yl)ethyl)sulfonyl)piperidin-4-yl)isoxazole-3-carboxamide]: the IC50 on SMYD3 [1] was 541 nM; at SMYD3 [2], 1660 nM.

For `C[C@@H]1C[C@H](NC(=O)c2cc(C3CC3)on2)CCN1C(=O)c1ccc2c(c1)ncn2C` [compound 747, 5-cyclopropyl-N-((2R,4R)-2-methyl-1-(1-methyl-1H-benzo[d]imidazole-5-carbonyl)piperidin-4-yl)isoxazole-3-carboxamide], the IC50 at SMYD3 [1] turned out to be 583 nM; on SMYD3 [2], 2410 nM.

`CN(CCc1ccccc1)CCS(=O)(=O)N1[C@@H]2CC[C@H]1C[C@@H](NC(=O)c1cc(C3CC3)on1)C2` [compound 748, 5-cyclopropyl-N-((1R,3r,5S)-8-((2-(methyl(phenethyl)amino)ethyl)sulfonyl)-8-azabicyclo[3.2.1]octan-3-yl)isoxazole-3-carboxamide]: the IC50 on SMYD3 [1] worked out at 584 nM; at SMYD3 [2] it was 3180 nM.

In the case of `O=C(N[C@H]1C[C@H]2CC[C@@H](C1)N2S(=O)(=O)N1CCNC(Cc2ccccc2)C1)c1cc(C2CC2)on1` (stereo partly drawn) [compound 749, N-((1R,3r,5S)-8-((3-benzylpiperazin-1-yl)sulfonyl)-8-azabicyclo[3.2.1]octan-3-yl)-5-cyclopropylisoxazole-3-carboxamide], the IC50 on SMYD3 [1] is 590 nM; on SMYD3 [2], 3560 nM.

Consider `COCCCN1CCC(CS(=O)(=O)N2CC[C@H](NC(=O)c3cc(C4CC4)on3)C[C@@H]2Cc2ccccc2)CC1` [compound 750, N-((2S,4S)-2-benzyl-1-(((1-(3-methoxypropyl)piperidin-4-yl)methyl)sulfonyl)piperidin-4-yl)-5-cyclopropylisoxazole-3-carboxamide], for which the IC50 on SMYD3 [1] was 625 nM; on SMYD3 [2] it was 3470 nM.

As to `C[C@H]1C[C@@H](NC(=O)c2cc(C3CC3)on2)CCN1S(=O)(=O)N1CCN[C@H](c2ccccc2)C1` [compound 751, 5-cyclopropyl-N-((2S,4S)-2-methyl-1-(((R)-3-phenylpiperazin-1-yl)sulfonyl)piperidin-4-yl)isoxazole-3-carboxamide], the IC50 on SMYD3 [1] was 633 nM; at SMYD3 [2], 2890 nM.

Consider `O=C(N[C@@H]1CCN(S(=O)(=O)C2CCNC2)[C@H](Cc2ccccc2)C1)c1cc(C2CC2)on1` (stereo partly drawn) [compound 752, N-((2R,4R)-2-benzyl-1-(pyrrolidin-3-ylsulfonyl)piperidin-4-yl)-5-cyclopropylisoxazole-3-carboxamide], for which the values for the IC50 at SMYD3 [1] and on SMYD3 [2] were 667 nM and 2490 nM, respectively.

Turning to `O=C(N[C@@H]1C[C@H]2CCC[C@@H](C1)N2S(=O)(=O)c1cncc(F)c1)c1cc(C2CC2)on1` [compound 753, 5-cyclopropyl-N-((1R,3s,5S)-9-((5-fluoropyridin-3-yl)sulfonyl)-9-azabicyclo[3.3.1]nonan-3-yl)isoxazole-3-carboxamide], the half-inhibitory concentration (IC50) was determined as 672 nM at SMYD3 [1] and 2040 nM on SMYD3 [2].

In the case of `C[C@H]1C[C@@H](NC(=O)c2cc(C3CC3)on2)CCN1S(=O)(=O)NCc1c(F)cccc1Cl` [compound 754, N-((2S,4S)-1-(N-(2-chloro-6-fluorobenzyl)sulfamoyl)-2-methylpiperidin-4-yl)-5-cyclopropylisoxazole-3-carboxamide], the values for the IC50 on SMYD3 [1] and on SMYD3 [2] were 676 nM and 3710 nM, respectively.

In the case of `C[C@@H]1CN(S(=O)(=O)N2CC[C@H](NC(=O)c3cc(C4CC4)on3)C[C@@H]2C)C[C@H](C)N1C` [compound 755, 5-cyclopropyl-N-((2S,4S)-2-methyl-1-(((3S,5R)-3,4,5-trimethylpiperazin-1-yl)sulfonyl)piperidin-4-yl)isoxazole-3-carboxamide], the results for the IC50 at SMYD3 [1] and at SMYD3 [2] were 677 nM and 2380 nM, respectively.

Consider `C[C@H]1C[C@@H](NC(=O)c2cc(C3CC3)on2)CCN1S(=O)(=O)c1ccnc(N)c1` [compound 756, N-((2S,4S)-1-((2-aminopyridin-4-yl)sulfonyl)-2-methylpiperidin-4-yl)-5-cyclopropylisoxazole-3-carboxamide], for which the IC50 was 684 nM at SMYD3 [1] and 1770 nM at SMYD3 [2].

For the molecule `CN(C1CCNCC1)S(=O)(=O)N1CC[C@@H](NC(=O)c2cc(C3CC3)on2)C[C@H]1Cc1ccccc1` [compound 757, N-((2R,4R)-2-benzyl-1-(N-methyl-N-(piperidin-4-yl)sulfamoyl)piperidin-4-yl)-5-cyclopropylisoxazole-3-carboxamide], the IC50 at SMYD3 [1] turned out to be 726 nM; at SMYD3 [2], 7610 nM.

As for `O=C(N[C@H]1C[C@H]2CC[C@@H](C1)N2S(=O)(=O)N1CC2COCC(C1)N2)c1cc(C2CC2)on1` [compound 758, N-((1R,3r,5S)-8-((3-oxa-7,9-diazabicyclo[3.3.1]nonan-7-yl)sulfonyl)-8-azabicyclo[3.2.1]octan-3-yl)-5-cyclopropylisoxazole-3-carboxamide], the results for the IC50 on SMYD3 [1] and on SMYD3 [2] were 731 nM and 1650 nM, respectively.

In the case of `C[C@H]1C[C@@H](NC(=O)c2cc(C3CC3)on2)CCN1S(=O)(=O)N1CCN(C)[C@H](CCO)C1` [compound 759, 5-cyclopropyl-N-((2S,4S)-1-(((R)-3-(2-hydroxyethyl)-4-methylpiperazin-1-yl)sulfonyl)-2-methylpiperidin-4-yl)isoxazole-3-carboxamide], the half-maximal inhibitory concentration (IC50) at SMYD3 [1] amounted to 733 nM; at SMYD3 [2], 2060 nM.

Turning to `CC(=O)NCc1ccc(S(=O)(=O)N2CC[C@H](NC(=O)c3cc(C4CC4)on3)C[C@@H]2C)cc1` [compound 761, N-((2S,4S)-1-((4-(acetamidomethyl)phenyl)sulfonyl)-2-methylpiperidin-4-yl)-5-cyclopropylisoxazole-3-carboxamide], the IC50 is 751 nM on SMYD3 [1] and 2850 nM at SMYD3 [2].

For `COCC1CCCN1CCS(=O)(=O)N1[C@@H]2CC[C@H]1C[C@@H](NC(=O)c1cc(C3CC3)on1)C2` (stereo partly drawn) [compound 762, 5-cyclopropyl-N-((1R,3r,5S)-8-((2-(2-(methoxymethyl)pyrrolidin-1-yl)ethyl)sulfonyl)-8-azabicyclo[3.2.1]octan-3-yl)isoxazole-3-carboxamide], the IC50 at SMYD3 [1] amounted to 770 nM; on SMYD3 [2], 2070 nM.

Take `C[C@@H]1C[C@H](NC(=O)c2cc(C3CC3)on2)CCN1C(=O)c1ccc(OCCN2CCNCC2)cc1` [compound 764, 5-cyclopropyl-N-((2R,4R)-2-methyl-1-(4-(2-(piperazin-1-yl)ethoxy)benzoyl)piperidin-4-yl)isoxazole-3-carboxamide]: the IC50 is 806 nM on SMYD3 [1] and 9670 nM at SMYD3 [2].

As to `CCN1CCN(S(=O)(=O)N2[C@@H]3CCC[C@@H]2CC(NC(=O)c2cc(C4CC4)on2)C3)CC1` (stereo partly drawn) [compound 765, 5-cyclopropyl-N-((1R,5R)-9-((4-ethylpiperazin-1-yl)sulfonyl)-9-azabicyclo[3.3.1]nonan-3-yl)isoxazole-3-carboxamide], the half-inhibitory concentration (IC50) on SMYD3 [1] came out at 836 nM; on SMYD3 [2] it was 2420 nM.
